Source: ChEMBL document CHEMBL4229544, “Design, synthesis and antibacterial properties of pyrimido[4,5-b]indol-8-amine inhibitors of DNA gyrase” (Bioorg Med Chem Lett, 2018)
≈ marks a conversion by molar mass, not a printed value.

What was measured:
Enterococcus faecalis [1] = assay: Antibacterial activity against Enterococcus faecalis ATCC 29212; type: functional
Staphylococcus aureus = assay: Antibacterial activity against Staphylococcus aureus ATCC 29213; type: functional
Escherichia coli = assay: Antibacterial activity against Escherichia coli ATCC 25922; type: functional
[2] = tested on: Mycolicibacterium smegmatis; assay: Antibacterial activity against Mycobacterium smegmatis ATCC 19420; type: functional
[3] = tested on: Mycobacterium tuberculosis; assay: Antibacterial activity against Mycobacterium tuberculosis H37Rv; type: functional
Enterococcus faecalis [4] = assay: Antibacterial activity against Enterococcus faecalis ATCC 29212 by agar dilution method; type: functional
[5] = tested on: Mycobacterium tuberculosis; assay: Antibacterial activity against Mycobacterium tuberculosis H37Rv measured after 5 days by resazurin-dye based microplate assay; type: functional; settings: 120 h
Pseudomonas aeruginosa [6] = assay: Antibacterial activity against Pseudomonas aeruginosa ATCC 27853 by agar dilution method; type: functional
Haemophilus influenzae [7] = assay: Antibacterial activity against Haemophilus influenzae ATCC 49247 by agar dilution method; type: functional
Streptococcus pneumoniae [8] = assay: Antibacterial activity against Streptococcus pneumoniae ATCC 49619 by agar dilution method; type: functional
[9] = tested on: Staphylococcus epidermidis; assay: Antibacterial activity against Staphylococcus epidermidis ATCC 12228 by agar dilution method; type: functional
HepG2 = assay: Cytotoxicity against human HepG2 cells after 24 hrs by CellTiter-Glo assay; type: cell-based; settings: HepG2, 24 h
Acinetobacter baumannii = assay: Antibacterial activity against Acinetobacter baumannii NCTC 13420; type: functional
Pseudomonas aeruginosa [10] = assay: Antibacterial activity against Pseudomonas aeruginosa ATCC 27853; type: functional
Haemophilus influenzae [11] = assay: Antibacterial activity against Haemophilus influenzae ATCC 49247; type: functional
Streptococcus pneumoniae [12] = assay: Antibacterial activity against Streptococcus pneumoniae ATCC 49619; type: functional
[13] = tested on: Staphylococcus epidermidis; assay: Antibacterial activity against Staphylococcus epidermidis ATCC 12228; type: functional
[14] = biological target: T1, DNA gyrase subunit A/DNA gyrase subunit B (Mycobacterium tuberculosis (strain ATCC 25618 / H37Rv), UniProt P9WG45+P9WG47); assay: Inhibition of Mycobacterium tuberculosis DNA gyrase activity; type: protein-complex assay
[15] = biological target: T1, DNA gyrase subunit A/DNA gyrase subunit B; assay: Inhibition of Mycobacterium tuberculosis DNA gyrase ATPase activity; type: protein-complex assay
Homo sapiens = species on record: Homo sapiens; assay: Inhibition of human topoisomerase-2-mediated decatenation at 100 uM relative to control

T1 sequence (P9WG45 whole entry): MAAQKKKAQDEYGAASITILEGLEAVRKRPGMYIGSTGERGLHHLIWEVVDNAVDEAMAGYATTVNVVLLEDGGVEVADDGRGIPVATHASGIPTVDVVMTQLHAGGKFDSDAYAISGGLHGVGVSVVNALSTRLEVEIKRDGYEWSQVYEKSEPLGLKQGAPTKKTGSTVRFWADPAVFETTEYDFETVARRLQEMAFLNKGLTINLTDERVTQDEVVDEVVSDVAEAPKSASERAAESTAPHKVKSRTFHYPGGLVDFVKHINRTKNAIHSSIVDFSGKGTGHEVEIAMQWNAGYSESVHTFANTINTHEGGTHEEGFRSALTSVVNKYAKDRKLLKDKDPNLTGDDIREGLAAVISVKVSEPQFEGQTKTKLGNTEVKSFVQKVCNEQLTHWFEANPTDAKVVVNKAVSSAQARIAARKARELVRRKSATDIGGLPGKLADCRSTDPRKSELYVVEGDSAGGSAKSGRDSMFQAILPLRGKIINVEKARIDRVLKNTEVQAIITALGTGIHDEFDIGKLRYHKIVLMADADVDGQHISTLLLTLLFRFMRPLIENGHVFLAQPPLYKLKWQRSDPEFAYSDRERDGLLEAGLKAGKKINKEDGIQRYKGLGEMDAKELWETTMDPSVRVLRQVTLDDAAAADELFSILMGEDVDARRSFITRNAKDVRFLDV
T1 sequence (P9WG47 whole entry): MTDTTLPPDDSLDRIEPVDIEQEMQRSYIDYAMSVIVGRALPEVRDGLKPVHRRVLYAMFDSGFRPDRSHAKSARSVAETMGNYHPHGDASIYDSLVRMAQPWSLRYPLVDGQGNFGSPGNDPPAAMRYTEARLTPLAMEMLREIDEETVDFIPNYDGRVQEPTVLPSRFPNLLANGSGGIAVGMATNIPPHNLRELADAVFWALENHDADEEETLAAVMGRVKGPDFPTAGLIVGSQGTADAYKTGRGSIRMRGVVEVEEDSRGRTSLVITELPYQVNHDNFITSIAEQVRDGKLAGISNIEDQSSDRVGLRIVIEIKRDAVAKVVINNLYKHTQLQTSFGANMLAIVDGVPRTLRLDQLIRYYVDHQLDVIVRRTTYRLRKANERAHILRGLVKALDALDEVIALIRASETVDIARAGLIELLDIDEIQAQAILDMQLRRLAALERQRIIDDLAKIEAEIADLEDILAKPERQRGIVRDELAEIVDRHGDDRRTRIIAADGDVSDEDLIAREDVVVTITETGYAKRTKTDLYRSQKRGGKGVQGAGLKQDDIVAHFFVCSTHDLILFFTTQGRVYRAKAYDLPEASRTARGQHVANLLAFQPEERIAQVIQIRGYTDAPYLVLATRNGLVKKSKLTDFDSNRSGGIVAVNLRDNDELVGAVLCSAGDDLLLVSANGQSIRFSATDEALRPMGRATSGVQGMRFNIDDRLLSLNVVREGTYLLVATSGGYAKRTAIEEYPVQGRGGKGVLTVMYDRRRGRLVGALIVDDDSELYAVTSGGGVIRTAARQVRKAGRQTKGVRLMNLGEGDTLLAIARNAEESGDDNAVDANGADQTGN

Compound | MIC (Enterococcus faecalis [1]) [µg/mL] | MIC (Staphylococcus aureus) [µg/mL] | MIC (Escherichia coli) [µg/mL] | MIC [2] [µg/mL] | MIC [3] [µg/mL] | other results
CNc1cc(F)cc2c1[nH]c1nc(CNC(=O)c3ocnc3C)nc(N3CCC(NC)C3)c12 (centres undefined) | 0.25 (≈ 0.552 µM) | 4 (≈ 8.84 µM) | 4 (≈ 8.84 µM) | 0.06 (≈ 0.133 µM) | 0.03 (≈ 0.0663 µM) | –
CNc1cc(F)cc2c1[nH]c1nc(CN)nc(N3CCC(N)C3)c12 (centres undefined) | 8 (≈ 24.3 µM) | 8 (≈ 24.3 µM) | 8 (≈ 24.3 µM) | – | – | –
CNc1cc(F)cc2c1[nH]c1nc(CNC(=O)c3cocn3)nc(N3CCC(NC)C3)c12 (centres undefined) | 0.25 (≈ 0.57 µM) | 16 (≈ 36.5 µM) | 16 (≈ 36.5 µM) | 0.5 (≈ 1.14 µM) | 0.12 (≈ 0.274 µM) | –
CO[C@@H]1[C@@H](OC(N)=O)[C@@H](O)[C@H](Oc2ccc3c(O)c(NC(=O)c4ccc(O)c(CC=C(C)C)c4)c(=O)oc3c2C)OC1(C)C [NOVOBIOCIN] | – | 0.06 (≈ 0.0979 µM) | > 64 | 1 (≈ 1.63 µM) | – | MIC (Enterococcus faecalis [4]): 4 µg/mL (≈ 6.53 µM); MIC [5]: 4 µg/mL (≈ 6.53 µM); MIC (Pseudomonas aeruginosa [6]): > 64 µg/mL; MIC (Haemophilus influenzae [7]): 0.5 µg/mL (≈ 0.816 µM); MIC (Streptococcus pneumoniae [8]): 0.5 µg/mL (≈ 0.816 µM); MIC [9]: 0.06 µg/mL (≈ 0.0979 µM); IC50 (HepG2): > 32 µg/mL
CNc1cc(F)cc2c1[nH]c1nc(CNC(=O)c3cnco3)nc(N3CCC(N(C)C)C3)c12 (centres undefined) | 0.015 (≈ 0.0331 µM) | 0.5 (≈ 1.1 µM) | 0.25 (≈ 0.552 µM) | 0.06 (≈ 0.133 µM) | 0.06 (≈ 0.133 µM) | MIC (Acinetobacter baumannii): 1 µg/mL (≈ 2.21 µM); MIC (Pseudomonas aeruginosa [10]): > 64 µg/mL; MIC (Haemophilus influenzae [11]): 4 µg/mL (≈ 8.84 µM); MIC (Streptococcus pneumoniae [12]): 0.12 µg/mL (≈ 0.265 µM); MIC [13]: 0.12 µg/mL (≈ 0.265 µM); IC50 (HepG2): > 16 µg/mL
CNc1cc(F)cc2c1[nH]c1nc(CNC(=O)c3ocnc3C)nc(N3CCC(CN)C3)c12 (centres undefined) | 0.5 (≈ 1.1 µM) | 8 (≈ 17.7 µM) | 8 (≈ 17.7 µM) | 0.03 (≈ 0.0663 µM) | 0.015 (≈ 0.0331 µM) | –
CNc1cc(F)cc2c1[nH]c1nc(CNC(=O)c3cnc(C)o3)nc(N3CCC(N(C)C)C3)c12 (centres undefined) | 0.015 (≈ 0.0322 µM) | 1 (≈ 2.14 µM) | 1 (≈ 2.14 µM) | 0.002 (≈ 0.00429 µM) | – | –
CNc1cc(F)cc2c1[nH]c1nc(CNC(=O)c3cnco3)nc(N3CCC(NC)C3)c12 (centres undefined) | 0.5 (≈ 1.14 µM) | 8 (≈ 18.2 µM) | 4 (≈ 9.12 µM) | 0.5 (≈ 1.14 µM) | 0.03 (≈ 0.0684 µM) | MIC (Acinetobacter baumannii): > 64 µg/mL; MIC (Pseudomonas aeruginosa [10]): > 64 µg/mL; MIC (Haemophilus influenzae [11]): 4 µg/mL (≈ 9.12 µM); MIC (Streptococcus pneumoniae [12]): 2 µg/mL (≈ 4.56 µM); MIC [13]: 2 µg/mL (≈ 4.56 µM); IC50 (HepG2): > 32 µg/mL
CNc1cc(F)cc2c1[nH]c1nc(CNC(=O)c3cnco3)nc(N3CCC(N)C3)c12 (centres undefined) | 1 (≈ 2.36 µM) | 8 (≈ 18.8 µM) | 4 (≈ 9.42 µM) | 0.25 (≈ 0.589 µM) | 0.25 (≈ 0.589 µM) | MIC (Acinetobacter baumannii): 8 µg/mL (≈ 18.8 µM); MIC (Pseudomonas aeruginosa [10]): 32 µg/mL (≈ 75.4 µM); MIC (Haemophilus influenzae [11]): 1 µg/mL (≈ 2.36 µM); MIC (Streptococcus pneumoniae [12]): 1 µg/mL (≈ 2.36 µM); MIC [13]: 1 µg/mL (≈ 2.36 µM); IC50 (HepG2): > 16 µg/mL; IC50 [14]: 10 nM; IC50 [15]: 59 nM; inhibition (Homo sapiens): 21.2%
CNc1cc(F)cc2c1[nH]c1nc(CNC(=O)c3ccc4cc[nH]c4n3)nc(N3CCC(N(C)C)C3)c12 (centres undefined) | 0.5 (≈ 0.997 µM) | 1 (≈ 1.99 µM) | 4 (≈ 7.97 µM) | 0.25 (≈ 0.498 µM) | 0.25 (≈ 0.498 µM) | –
CNc1cc(F)cc2c1[nH]c1nc(CNC(=O)c3cnco3)nc(N3CCC(CN)C3)c12 (centres undefined) | 0.12 (≈ 0.274 µM) | 4 (≈ 9.12 µM) | 4 (≈ 9.12 µM) | 0.06 (≈ 0.137 µM) | 0.03 (≈ 0.0684 µM) | –
COc1c(N2C[C@@H]3CCCN[C@@H]3C2)c(F)cc2c(=O)c(C(=O)O)cn(C3CC3)c12 [MOXIFLOXACIN] | – | – | – | 0.03 (≈ 0.0747 µM) | – | –
CNc1cc(F)cc2c1[nH]c1nc(CNC(=O)c3cccnc3)nc(N3CCC(N)C3)c12 (centres undefined) | 0.25 (≈ 0.575 µM) | 32 (≈ 73.7 µM) | 8 (≈ 18.4 µM) | – | – | –
CNc1cc(F)cc2c1[nH]c1nc(CNC(=O)c3cccc(C(=O)OC)n3)nc(N3CCC(CN)C3)c12 (centres undefined) | 1 (≈ 1.97 µM) | 8 (≈ 15.8 µM) | 32 (≈ 63.2 µM) | 0.06 (≈ 0.118 µM) | – | –
NNC(=O)c1ccncc1 [ISONIAZID] | – | – | – | 4 (≈ 29.2 µM) | – | –
CNc1cc(F)cc2c1[nH]c1nc(CNC(=O)c3cccnn3)nc(N3CCC(N)C3)c12 (centres undefined) | 0.12 (≈ 0.276 µM) | 8 (≈ 18.4 µM) | 4 (≈ 9.19 µM) | – | – | –
CO[C@H]1/C=C/O[C@@]2(C)Oc3c(C)c(O)c4c(O)c(c(/C=N/N5CCN(C)CC5)c(O)c4c3C2=O)NC(=O)/C(C)=C\C=C\[C@H](C)[C@H](O)[C@@H](C)[C@@H](O)[C@@H](C)[C@H](OC(C)=O)[C@@H]1C [RIFAMPIN] | – | – | – | 16 (≈ 19.4 µM) | – | –
CNc1cc(F)cc2c1[nH]c1nc(CNC(=O)c3ccco3)nc(N3CCC(N(C)C)C3)c12 (centres undefined) | 0.12 (≈ 0.266 µM) | 0.25 (≈ 0.554 µM) | 0.5 (≈ 1.11 µM) | 0.06 (≈ 0.133 µM) | 0.03 (≈ 0.0664 µM) | –
CNc1cc(F)cc2c1[nH]c1nc(CNC(=O)c3cnc(C)o3)nc(N3CCC(CN)C3)c12 (centres undefined) | 0.25 (≈ 0.552 µM) | 8 (≈ 17.7 µM) | 4 (≈ 8.84 µM) | 0.12 (≈ 0.265 µM) | 0.015 (≈ 0.0331 µM) | –
CNc1cc(F)cc2c1[nH]c1nc(CNC(=O)c3cocn3)nc(N3CCC(N)C3)c12 (centres undefined) | 0.06 (≈ 0.141 µM) | 8 (≈ 18.8 µM) | 128 (≈ 302 µM) | 0.12 (≈ 0.283 µM) | – | MIC (Acinetobacter baumannii): 16 µg/mL (≈ 37.7 µM); MIC (Pseudomonas aeruginosa [10]): 128 µg/mL (≈ 302 µM); MIC (Haemophilus influenzae [11]): 1 µg/mL (≈ 2.36 µM); MIC (Streptococcus pneumoniae [12]): 0.12 µg/mL (≈ 0.283 µM); MIC [13]: 1 µg/mL (≈ 2.36 µM); IC50 (HepG2): 10.8 µg/mL (≈ 25.5 µM); IC50 [14]: 5 nM; IC50 [15]: 25 nM; inhibition (Homo sapiens): 5.8%
CNc1cc(F)cc2c1[nH]c1nc(CNC(=O)c3ocnc3C)nc(N3CCC(N(C)C)C3)c12 (centres undefined) | 0.03 (≈ 0.0643 µM) | 1 (≈ 2.14 µM) | 2 (≈ 4.29 µM) | 0.06 (≈ 0.129 µM) | 0.06 (≈ 0.129 µM) | –
